Target: phosphorylated active hERK2 enzyme (Homo sapiens, UniProt P28482)
Test: Active human ERK2 (hERK2) Activity Assay (IMAP-FP)
Format: biochemical
Settings: 10 point titration, 3 μM starting concentration, 0.5 nM hERK2, 30 μM ATP, 60 minutes reaction
Procedure: Activated ERK2 activity was determined in an IMAP-FP assay (Molecular Devices). Using this assay format, the potency (IC50) of each compound was determined from a 10 point (1:3 serial dilution, 3 μM starting compound concentration) titration curve using the following outlined procedure. […] Following a 15 minute compound & enzyme incubation, each reaction was initiated by the addition of 10 μL kinase buffer containing 2.45 μM ERK2 IMAP substrate peptides and 75 μM ATP. The final reaction in each well of 25 μL consists of 0.5 nM hERK2, 900 nM unlabeled peptide, 80 nM labeled-peptide, and 30 μM ATP. Phosphorylation reactions were allowed to proceed for 60 minutes and were immediately quenched by the addition of 60 μL IMAP detection beads (1:1000 dilutions) in IMAP binding buffer (Molecular Devices) with 24 mM NaCl. Plates were read on EnVision reader after 60 minutes binding equilibration using Fluorescence Polarization protocol (Perkin Elmer).

phosphorylated active hERK2 enzyme, sequence (P28482 whole entry): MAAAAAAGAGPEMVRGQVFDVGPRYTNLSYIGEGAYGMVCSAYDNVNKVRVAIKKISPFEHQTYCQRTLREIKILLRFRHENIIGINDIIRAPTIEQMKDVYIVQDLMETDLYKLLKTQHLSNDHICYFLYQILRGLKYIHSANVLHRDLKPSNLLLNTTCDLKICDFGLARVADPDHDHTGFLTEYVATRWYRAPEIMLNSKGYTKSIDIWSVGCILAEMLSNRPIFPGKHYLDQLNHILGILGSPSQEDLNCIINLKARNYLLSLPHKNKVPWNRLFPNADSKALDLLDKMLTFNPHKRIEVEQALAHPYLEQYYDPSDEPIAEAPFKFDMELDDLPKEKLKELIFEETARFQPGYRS

| Structure (SMILES) | IC50 [nM] |
| --- | --- |
| CCn1ncc2cc3nc(c21)[C@H]1C[C@H]1COC[C@H](c1ccccc1)NC(=O)N3 [Example 8, (9S,12aR,13aS)-1-Ethyl-9-phenyl-1,6,9,10,12,12a,13,13a-octahydro-5,14-(azeno)cyclopropa[1]pyrazolo[4,3-i][1,4,6]oxadiazacyclotetradecin-7(8H)-one] | 49.7 |
| CN1CCCc2nc(cc3cnn(C)c23)NC(=O)N[C@@H](c2ccccc2)C1 [Example 15, (9S)-1,11-Dimethyl-9-phenyl-1,6,9,10,11,12,13,14-octahydro-5,15-(azeno)pyrazolo[3,4-k][1,3,6]triazacyclotetradecin-7(8H)-one] | 56.8 |
| Cn1ncc2cc3nc(c21)CCCCCC(c1ccccc1)NC(=O)N3 (stereo not shown) [Example 30, 1-Methyl-9-phenyl-1,6,9,10,11,12,13,14-octahydro-5,15-(azeno)pyrazolo[4,3-f][1,3]diazacyclotetradecin-7(8H)-one] | 230 |
| Cc1c2nnn1Cc1nc(cc3cnn(C)c13)NC(=O)NC(c1ccccc1)C2 (stereo not shown) [Example 40, 1,18-Dimethyl-9-phenyl-1,6,9,10-tetrahydro-5,16-(azeno)-14,11-(metheno)pyrazolo[4,3-l][1,2,3,7,9]pentaazacyclopentadecin-7(8H,15H)-one] | 1950 |
| Cn1ncc2cc3nc(c21)COCCCC(c1ccccc1)NC(=O)N3 (stereo not shown) [Example 32, 1-Methyl-9-phenyl-1,6,9,10,11,12-hexahydro-5,15-(azeno)pyrazolo[4,3-k][1,6,8]oxadiazacyclotetradecin-7(8H,14H)-one] | 50.9 |
| CCn1ncc2cc3nc(c21)OCCC[C@@H](O)[C@H](c1ccccc1)NC(=O)N3 [Example 26, (9S,10R)-1-Ethyl-10-hydroxy-9-phenyl-1,6,8,9,10,11,12,13-octahydro-7H-5,15-(azeno)pyrazolo[3,4-c][1,7,9]oxadiazacyclotetradecin-7-one] | 118 |
| CCn1ncc2cc3nc(c21)OCCC[C@](C)(O)[C@H](c1ccccc1)NC(=O)N3 [Example 27, (9S,10S)-1-Ethyl-10-hydroxy-10-methyl-9-phenyl-1,6,8,9,10,11,12,13-octahydro-7H-5,15-(azeno)pyrazolo[3,4-c][1,7,9]oxadiazacyclotetradecin-7-one] | 148 |
| CN1CCCCC(c2ccccc2)NC(=O)Nc2cc3cnn(C)c3c1n2 (stereo not shown) [Example 20, 1,14-Dimethyl-9-phenyl-1,6,9,10,11,12,13,14-octahydro-5,15-(azeno)pyrazolo[4,3-f][1,3,9]triazacyclotetradecin-7(8H)-one] | 85.7 |
| CCn1ncc2cc3nc(c21)/C=C\COC(C)(C)[C@@H](c1ccccc1)NC(=O)N3 [Example 42, (9R,13Z)-1-Ethyl-10,10-dimethyl-9-phenyl-1,6,9,10-tetrahydro-12H-5,15-(azeno)pyrazolo [4,3-i][1,4,6]oxadiazacyclotetradecin-7(8H)-one] | 230 |
| Cc1cc(-n2ncc3cc4nc(c32)Cn2cc(nn2)CC(c2ccccc2)NC(=O)N4)ccn1 (single isomer, unassigned) [Example 39, 1-(2-Methylpyridin-4-yl)-9-phenyl-1,6,9,10-tetrahydro-5,16-(azeno)-14,11-(metheno)pyrazolo[4,3-l][1,2,3,7,9]pentaazacyclopentadecin-7(8H,15H)-one] | 233 |
| COCCn1ncc2cc3nc(c21)Cn1cc(nn1)CC(c1ccccc1)NC(=O)N3 (stereo not shown) [Example 36, 1-(2-Methoxyethyl)-9-phenyl-1,6,9,10-tetrahydro-5,16-(azeno)-14,11-(metheno)pyrazolo[4,3-l][1,2,3,7,9]pentaazacyclopentadecin-7(8H,15H)-one] | 416 |
| Cn1ncc2cc3nc(c21)Cn1cc(nn1)C[C@H](c1ccccc1)NC(=O)N3 [Example 35, (9R)-1-Methyl-9-phenyl-1,6,9,10-tetrahydro-5,16-(azeno)-14,11-(metheno)pyrazolo[4,3-l][1,2,3,7,9]pentaazacyclopentadecin-7(8H,15H)-one] | 69.4 |
| CCn1ncc2cc3nc(c21)CCCO[C@@H]([C@@H](C)O)[C@@H](c1ccccc1)NC(=O)N3 [Example 47, (9R,10R)-1-Ethyl-10-[(1R)-1-hydroxyethyl]-9-phenyl-1,6,9,10,13,14-hexahydro-12H-5,15-(azeno)pyrazolo[4,3-i][1,4,6]oxadiazacyclotetradecin-7(8H)-one] | 687 |
| CCn1ncc2cc3nc(c21)OCCC[C@@](C)(O)[C@H](c1ccccc1)NC(=O)N3 [Example 28, (9S,10R)-1-Ethyl-10-hydroxy-10-methyl-9-phenyl-1,6,8,9,10,11,12,13-octahydro-7H-5,15-(azeno)pyrazolo[3,4-c][1,7,9]oxadiazacyclotetradecin-7-one] | 144 |
| Cn1ncc2cc3nc(c21)CNCCCC(c1ccccc1)NC(=O)N3 (stereo not shown) [Example 31, 1-Methyl-9-phenyl-1,6,9,10,11,12,13,14-octahydro-5,15-(azeno)pyrazolo[3,4-k][1,3,8]triazacyclotetradecin-7(8H)-one] | 832 |
| CCn1ncc2cc3nc(c21)OCCCCC(c1ccccc1)NC(=O)N3 (stereo not shown) [Example 16, 1-Ethyl-9-phenyl-1,6,8,9,10,11,12,13-octahydro-7H-5,15-(azeno)pyrazolo [3,4-c][1,7,9]oxadiazacyclotetradecin-7-one] | 85.4 |

The next compounds have a lower IC50 than those just listed; values first:

| IC50 [nM] | Structure (SMILES) |
| --- | --- |
| 24.3 | CCn1ncc2cc3nc(c21)OCCC[C@H](O)[C@H](c1ccccc1)NC(=O)N3 [Example 25, (9S,10S)-1-Ethyl-10-hydroxy-9-phenyl-1,6,8,9,10,11,12,13-octahydro-7H-5,15-(azeno)pyrazolo[3,4-c][1,7,9]oxadiazacyclotetradecin-7-one] |
| 3.83 | CCn1ncc2cc3nc(c21)C[C@@H](O)COC[C@H](c1cccc(Cl)c1)NC(=O)N3 [Example 55, (9S,13R)-9-(3-chlorophenyl)-1-ethyl-13-hydroxy-1,6,9,10,13,14-hexahydro-12H-5,15-(azeno)pyrazolo[4,3-i][1,4,6]oxadiazacyclotetradecin-7(8H)-one] |
| 11.6 | CCn1ncc2cc3nc(c21)[C@@H]1C[C@@H]1COC[C@H](c1ccccc1)NC(=O)N3 [Example 7, (9S,12aS,13 aR)-1-Ethyl-9-phenyl-1,6,9,10,12,12a,13,13a-octahydro-5,14-(azeno)cyclopropa[l]pyrazolo[4,3-i][1,4,6]oxadiazacyclotetradecin-7(8H)-one] |
| 6.28 | CCn1ncc2cc3nc(c21)C[C@H](O)COC[C@H](c1ccc(OC)c(F)c1)NC(=O)N3 [Example 50, (9S,13S)-1-Ethyl-9-(3-fluoro-4-methoxyphenyl)-13-hydroxy-1,6,9,10,13,14-hexahydro-12H-5,15-(azeno)pyrazolo[4,3-i][1,4,6]oxadiazacyclotetradecin-7(8H)-one] |
| 5.09 | CCn1ncc2cc3nc(c21)C[C@H](O)COC[C@H](c1ccc(Cl)c(F)c1)NC(=O)N3 [Example 54, (9S,13S)-1-Ethyl-9-(4-chloro-3-fluorophenyl)-13-hydroxy-1,6,9,10,13,14-hexahydro-12H-5,15-(azeno)pyrazolo[4,3-i][1,4,6]oxadiazacyclotetradecin-7(8H)-one] |
| 7.91 | Cn1ncc2cc3nc(c21)NCCOC[C@H](c1ccccc1)NC(=O)N3 [Example 22, (9 S)-1-Methyl-9-phenyl-1,6,9,10,13,14-hexahydro-12H-5,15-(azeno)pyrazolo[4,3-i][1,4,6,12]oxatriazacyclotetradecin-7(8 H)-one] |
| 10.2 | Cn1ncc2cc3nc(c21)CCCOC[C@H](c1ccccc1)NC(=O)N3 [Example 2, (9S)-1-Methyl-9-phenyl-1,6,9,10,13,14-hexahydro-12H-5,15-(azeno)pyrazolo[4,3-i][1,4,6]oxadiazacyclotetradecin-7(8H)-one] |
| 0.996 | CCn1ncc2cc3nc(c21)C[C@H](O)COC[C@H](c1cccc(Cl)c1)NC(=O)N3 [Example 56, (9S,13S)-9-(3-chlorophenyl)-1-ethyl-13-hydroxy-1,6,9,10,13,14-hexahydro-12H-5,15-(azeno)pyrazolo[4,3-i][1,4,6]oxadiazacyclotetradecin-7(8H)-one] |
| 14.5 | CCn1ncc2cc3nc(c21)C[C@H](O)COC[C@H](c1cccc(F)c1)NC(=O)N3 [Example 52, (9S,13S)-1-Ethyl-9-(3-fluorophenyl)-13-hydroxy-1,6,9,10,13,14-hexahydro-12H-5,15-(azeno)pyrazolo[4,3-i][1,4,6]oxadiazacyclotetradecin-7(8H)-one] |
| 3.4 | CCn1ncc2cc3nc(c21)C[C@@H](O)COC[C@H](c1ccc(OC)c(F)c1)NC(=O)N3 [Example 49, (9S,13R)-1-Ethyl-9-(3-fluoro-4-methoxyphenyl)-13-hydroxy-1,6,9,10,13,14-hexahydro-12H-5,15-(azeno)pyrazolo[4,3-i][1,4,6]oxadiazacyclotetradecin-7(8H)-one] |
| 15.7 | CCn1ncc2cc3nc(c21)NCCCCC(c1ccccc1)NC(=O)N3 (stereo not shown) [Example 18, 1-Ethyl-9-phenyl-1,6,9,10,11,12,13,14-octahydro-5,15-(azeno)pyrazolo[4,3-f][1,3,9]triazacyclotetradecin-7(8H)-one] |
| 5.01 | CCn1ncc2cc3nc(c21)NCCOC[C@H](c1ccccc1)NC(=O)N3 [Example 21, (9S)-1-Ethyl-9-phenyl-1,6,9,10,13,14-hexahydro-12H-5,15-(azeno)pyrazolo[4,3-i][1,4,6,12]oxatriazacyclotetradecin-7(8H)-one] |
| 45.1 | Cn1ncc2cc3nc(c21)OCCC[C@H](O)[C@H](c1ccccc1)NC(=O)N3 [Example 23, (9S,10S)-10-Hydroxy-1-methyl-9-phenyl-1,6,8,9,10,11,12,13-octahydro-7H-5,15-(azeno)pyrazolo[3,4-c][1,7,9]oxadiazacyclotetradecin-7-one] |
| 8.79 | CCn1ncc2cc3nc(c21)CCCOC[C@H](c1ccccc1)NC(=O)N3 [Example 1, (9S)-1-Ethyl-9-phenyl-1,6,9,10,13,14-hexahydro-12H-5,15-(azeno)pyrazolo[4,3-i][1,4,6]oxadiazacyclotetradecin-7(8H)-one] |
| 11.2 | CCn1ncc2cc3nc(c21)CC(=O)COC[C@H](c1ccccc1)NC(=O)N3 [Example 43, (9 S)-1-Ethyl-9-phenyl-1,6,9,10-tetrahydro-12H-5,15-(azeno)pyrazolo [4,3-i][1,4,6]oxadiazacyclotetradecine-7,13(8H,14H)-dione] |

Source: patent US9988397B2, “ERK inhibitors” (Merck Sharp & Dohme Corp., priority 2014, dated 2018)
